# Experimental data reported in patent US9133186B2, “Hetero ring-fused imidazole derivative having AMPK activating effect” (Shionogi & Co., Ltd., priority 2010, dated 2015).
# Assays:
# [1] = biological target: T1, human AMPK α1β1γ1 enzyme (Homo sapiens, UniProt Q13131+Q9Y478); assay: AMPK activator evaluation, Test Example 1 (mobility shift, FL-Peptide 7); type: biochemical; conditions: human AMPK α1β1γ1, control without compound = 100%; for Emax: read-out: Emax (maximum rate of increase in activity within the measurement range)
# T1 construct: purchased Carna Biosciences, Inc
# Procedure: To a buffer solution consisting of a 50 mM HEPES-NaOH buffer solution (pH 7.0), 100 mM NaCl, 10 mM magnesium chloride, 0.1% bovine serum albumin, 0.2 mM sodium orthovanadate(V), 1 mM ethylene glycol-bis(2-aminoethyl ether)-N,N,N′,N′-tetraacetic acid (EGTA), 5 mM disodium (3-glycerophosphate and 2 mM dithiothreitol, a human AMPK α1β1γ1 enzyme (manufactured by Carna Biosciences, Inc.) was added in an amount to give a conversion rate of approximately 10% by reaction for 2 hours, and a compound dissolved in DMSO was added thereto so as to have a 1% DMSO concentration. The obtained liquid was left to stand for 10 minutes.
# (§1) To the liquid, a substrate solution consisting of a 50 mM HEPES-NaOH buffer solution (pH 7.0), 100 mM NaCl, 10 mM magnesium chloride, 0.1% bovine serum albumin, 0.2 mM sodium orthovanadate(V), 1 mM ethylene glycol-bis(2-aminoethyl ether)-N,N,N′,N′ tetraacetic acid (EGTA), 5 mM disodium β-glycerophosphate, 2 mM dithiothreitol, 0.4 mM ATP and 3 μM FL-Peptide 7 (manufactured by Caliper Life Sciences, Inc.) was added in equal amount (10 μl in total). The obtained liquid was allowed to react at 25° C. for 2 hours, and 10 μl of 20 mM EDTA was then added thereto to stop the reaction.
# (§2) To detect phosphorylated fluorescent substrates, the reaction liquid was applied to a measuring device, LabChip EZ Reader II manufactured by Caliper Life Science, Inc., for detecting fluorescence by using differences in mobility due to differences in charge. The setting conditions for the device were pressure, −1.5 PSI; upstream voltage, −2250 V; downstream voltage, −400 V; post sample buffer sip time, 40 seconds; final delay, 120 seconds; and peak order, Product First.
# [2] = biological target: T2, Human AMPK α2β2γ1 (Homo sapiens, UniProt O43741+P54646); assay: AMPK activator evaluation, Test Example 2 (CaMKK2-phosphorylated enzyme, mobility shift); type: biochemical; conditions: human AMPK α2β2γ1 phosphorylated with CaMKK2, control = 100%; for Emax: read-out: Emax (maximum rate of increase in activity within the measurement range)
# T2 construct: The full length cDNAs of human AMPK P2 (NM_005399.3) and human AMPK α2 (NM_006252.3); 6×His (N); made in house; host or cells: Escherichia coli BL21 CodonPlus (DE3)-RIL
# Procedure: The full length cDNAs of human AMPK P2 (NM_005399.3) and human AMPK α2 (NM_006252.3) were inserted into the MCS1 and MCS2 of the pETDuet-1 vector to prepare a human AMPK β2 and human AMPK α2 (6×His tag at the 5′ terminus) expressing plasmid. The plasmid was contransfected with an expression plasmid, in which the full length cDNA of human AMPK γ1 (NM_002733.3) had been inserted into pET28b(+), into BL21 CodonPlus (DE3)-RIL to obtain an expression strain. The expression strain was cultured in TB medium, followed by induction with 0.5 mM IPTG, and cultured at 25° C. for 3 hours and then harvested. After ultrasonication, supernatant was collected and applied to Histrap column (GE) and RESOUECE Q 6 ml column (GE) to prepare 12.5 mg of purified sample containing three types of subunit from 1.8 L of broth.
# An expression vector, in which the full length cDNA of human CAMKK β (NM_172226.1) had been inserted into pGEX-6P-3, was transfected into BL21 Star (DE3). The expression strain was cultured in TB medium, followed by induction with 0.5 mM IPTG, and cultured at 25° C. for 3 hours and then harvested. After ultrasonication, supernatant was collected and applied to GSTrap FF column (GE) to prepare 14 mg of GST-fused CAMKK β from 720 ml of broth.
# Thus, phosphorylation treatment was carried out as pretreatment.
# Human AMPK α2β2γ1 in an amount to give a conversion rate of approximately 10% by reaction for 2 hours, and CaMKK2 in an amount capable of sufficiently imparting activity to AMPK for one hour were mixed in a buffer solution consisting of a 50 mM HEPES-NaOH buffer solution (pH 7.0), 100 mM NaCl, 5 mM magnesium chloride, 0.1% bovine serum albumin, 0.2 mM sodium orthovanadate(V), 1 mM ethylene glycol-bis(2-aminoethyl ether)-N,N,N′,N′-tetraacetic acid (EGTA), 5 mM disodium β-glycerophosphate, 1 mM dithiothreitol and 0.2 mM ATP, and the obtained liquid was left to stand at 25° C. for 1 to 1.5 hours to sufficiently phosphorylate AMPK.
# After that, to the enzyme liquid, which had been subjected to phosphorylation treatment, a compound dissolved in DMSO was added so as to have a 1% DMSO concentration. The obtained liquid was left to stand for 10 minutes.
# as §1, with “ether)-N,N,N′,N′-tetraacetic” for “ether)-N,N,N′,N′ tetraacetic”, “glycerophosphate,” for “β-glycerophosphate,”
# as §2
# A conversion rate was calculated from the peak heights of the resulting substrate and product. The conversion rate when not containing a compound was used as a control, and a concentration dependent curve was made by plotting the rate of increase in activity to the control at each concentration of a compound.
# T2 sequence (P54646 whole entry): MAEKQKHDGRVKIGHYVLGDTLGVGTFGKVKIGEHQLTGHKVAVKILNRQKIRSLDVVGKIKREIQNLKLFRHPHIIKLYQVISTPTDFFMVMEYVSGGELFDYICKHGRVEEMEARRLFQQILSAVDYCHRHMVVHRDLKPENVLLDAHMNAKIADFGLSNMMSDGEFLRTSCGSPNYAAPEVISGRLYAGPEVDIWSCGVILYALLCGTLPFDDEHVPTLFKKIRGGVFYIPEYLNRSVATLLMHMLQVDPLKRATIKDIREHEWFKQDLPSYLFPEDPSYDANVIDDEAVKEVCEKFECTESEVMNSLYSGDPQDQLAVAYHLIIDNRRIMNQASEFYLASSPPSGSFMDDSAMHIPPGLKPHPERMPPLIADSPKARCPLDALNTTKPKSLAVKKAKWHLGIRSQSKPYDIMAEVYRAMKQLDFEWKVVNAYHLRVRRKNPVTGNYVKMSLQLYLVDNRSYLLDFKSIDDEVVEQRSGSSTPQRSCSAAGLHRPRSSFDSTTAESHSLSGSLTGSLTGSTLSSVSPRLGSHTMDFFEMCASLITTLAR
# T2 sequence (O43741 whole entry): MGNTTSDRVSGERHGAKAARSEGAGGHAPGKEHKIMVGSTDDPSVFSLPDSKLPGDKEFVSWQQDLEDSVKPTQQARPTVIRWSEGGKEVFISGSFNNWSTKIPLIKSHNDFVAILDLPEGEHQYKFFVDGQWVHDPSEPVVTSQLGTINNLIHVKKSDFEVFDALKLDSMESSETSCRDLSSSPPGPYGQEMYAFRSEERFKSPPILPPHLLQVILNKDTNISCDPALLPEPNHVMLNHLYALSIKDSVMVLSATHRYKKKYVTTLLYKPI
# T2 sequence (P54619 whole entry partner): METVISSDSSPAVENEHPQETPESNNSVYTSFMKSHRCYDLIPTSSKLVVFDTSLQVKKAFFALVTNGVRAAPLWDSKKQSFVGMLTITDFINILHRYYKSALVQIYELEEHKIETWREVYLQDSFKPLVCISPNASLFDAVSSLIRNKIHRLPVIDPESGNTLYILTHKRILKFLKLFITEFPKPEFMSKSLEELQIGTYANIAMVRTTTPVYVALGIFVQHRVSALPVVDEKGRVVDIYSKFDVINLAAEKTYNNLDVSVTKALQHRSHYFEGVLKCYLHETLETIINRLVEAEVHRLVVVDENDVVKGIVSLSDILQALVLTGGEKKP
# T1 sequence (Q13131 10-559 limits assumed): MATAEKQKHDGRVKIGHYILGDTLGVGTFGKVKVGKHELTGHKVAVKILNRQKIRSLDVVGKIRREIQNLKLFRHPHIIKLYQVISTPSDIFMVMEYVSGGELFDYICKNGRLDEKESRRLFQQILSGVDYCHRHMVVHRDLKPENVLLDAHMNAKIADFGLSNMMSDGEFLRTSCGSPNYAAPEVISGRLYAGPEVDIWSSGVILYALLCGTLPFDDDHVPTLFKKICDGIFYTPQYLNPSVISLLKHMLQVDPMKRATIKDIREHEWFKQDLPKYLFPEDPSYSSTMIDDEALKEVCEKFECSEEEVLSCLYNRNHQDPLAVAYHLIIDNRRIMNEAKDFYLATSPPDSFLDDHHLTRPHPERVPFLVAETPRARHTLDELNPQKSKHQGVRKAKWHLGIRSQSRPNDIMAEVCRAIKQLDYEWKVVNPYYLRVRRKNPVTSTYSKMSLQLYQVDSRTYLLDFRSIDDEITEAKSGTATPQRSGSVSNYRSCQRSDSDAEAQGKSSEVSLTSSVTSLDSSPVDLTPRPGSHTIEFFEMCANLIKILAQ
# T1 sequence (Q9Y478 whole entry): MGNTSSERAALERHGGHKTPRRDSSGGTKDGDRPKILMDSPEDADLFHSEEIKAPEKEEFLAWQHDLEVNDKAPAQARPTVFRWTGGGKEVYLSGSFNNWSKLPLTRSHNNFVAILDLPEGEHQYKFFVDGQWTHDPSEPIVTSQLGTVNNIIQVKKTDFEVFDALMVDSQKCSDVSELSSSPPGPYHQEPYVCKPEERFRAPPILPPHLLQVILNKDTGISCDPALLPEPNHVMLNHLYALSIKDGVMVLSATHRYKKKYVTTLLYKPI
# T1 sequence (P54619 whole entry partner): as the sequence (P54619 whole entry partner) above
Structure (SMILES),EC150 (compound concentration showing 150% relative to the control) [1],Emax [1],EC150 (compound concentration showing 150% relative to the control) [2],Emax [2]
Cc1ccc(Oc2nc3cc(Cl)c(-c4ccc(-c5ccccc5O)cc4)nc3[nH]2)cc1C(=O)O [Compound C-4],0.42 nM,355%,4.3 nM,292%
Cc1ccc(Oc2nc3nc(-c4ccc(N5CCOCC5)cc4)c(Cl)cc3[nH]2)cc1C(N)=O [Compound C-12],140 nM,256%,130 nM,293%
CC(=O)NC(C)(C)c1ccc(Oc2nc3nc(-c4ccc(N5CCC(O)C5)cc4)c(Cl)cc3[nH]2)cc1 [Compound D-49],3.5 nM,263%,54 nM,420%
Cc1ncc(Oc2nc3nc(-c4ccc(N5CCOCC5)cc4)c(Cl)cc3[nH]2)cn1 [Compound C-106],690 nM,278%,580 nM,290%
Cc1ccc(C(=O)O)cc1Oc1nc2nc(-c3ccc(N4CCOCC4)cc3)c(Cl)cc2[nH]1 [Compound B-108],27 nM,340%,410 nM,341%
Cc1ccc(Oc2nc3nc(-c4ccc5c(ccn5C)c4)c(Cl)cc3[nH]2)cc1C(=O)O [Compound A-2],7 nM,408%,74 nM,406%
Cc1ccc(Oc2nc3nc(-c4ccc(N5CCOCC5)cc4)c(Cl)cc3[nH]2)cn1 [Compound B-119],220 nM,265%,240 nM,242%
O=C(O)C1(c2ccc(Oc3nc4nc(-c5ccc(N6CCCC6)cc5)c(Cl)cc4[nH]3)cc2)CC1 [Compound C-94],12 nM,352%,59 nM,325%
O=C(O)c1ccc(Oc2nc3nc(-c4ccc(N5CCOCC5)cc4)c(Cl)cc3[nH]2)cc1 [Compound B-101],120 nM,269%,1300 nM,212%
